The values below come from patent US7868163B2, “Adenyl dinucleotides with antitumour activity and a method of preparing thereof” (Universita' Degli Studi Di Genova, priority 2005, dated 2011).

Where two headings read alike, the source gives them in different places.

The term IC50 denotes the concentration needed to halve the response being measured. High values mean weaker potency, low ones greater potency.

For one data set, the system named is Recombinant CD38. The experiment in a line: Hydrolysis by recombinant CD38. Here is the method: ADP-ribosyl cyclases from lower and higher Metazoa were incubated in the presence of 0.1 mM cADPR and 1 mM adenine at pH 7.4 in 10 mM Tris-HCl (A, B and C) or in PBS-glucose (D) at 22° C. (A and B) or at 37° C. (C and D) for 4 hours. Aliquots of the various incubations were deproteinised with TCA (trichloroacetic acid) and subjected to HPLC (analytical phosphate). Chromatograms representative of each incubation are shown. A. A. polypoides; B. A. californica; C. Human CD38 (recombinant); D. Human HeLa cells transfected with sense and antisense human CD38 (dashed chromatogram).
In table 1, the absolute values of the peak-forming and -hydrolysing activities are compared with the cADPR-forming and -hydrolysing activities for each enzyme. The activities are expressed as nmol/min/mg.

A further data set in a line: Acid hydrolysis. Particulars: yielding adenine and ADPR. In kind it is physicochemical.
For a further data set, the system named is CD38^+ HeLa. The experiment in a line: MTT reduction proliferation assay, CD38+ HeLa. In kind it is cell-based, human. The settings on record: 24 hours. The protocol: The effect of P18 and P24 on the proliferation of several cell lines was determined by the MTT reduction assay (Mosmann, T. (1983) J. Immunol. Methods 65, 55-63). […] After 24 hours, 10 μl of a 5 mg/ml solution of MTT were added to each well and the plates incubated for a further 2 hours. The supernatant was then removed from each well and the blue crystals produced by the reduction of the dye were dissolved in DMSO (200 μl/well). The optical absorbance at 570 nm was determined with a BioRad microplate reader.
In these experiments, cells were seeded onto 96 well plates (3×10^4 cells per well) and incubated in the presence of increasing concentrations of P18 or P24. After 24 hours, the percentage of viable cells was evaluated by spectrophotometric measurement of the concentration of reduced MTT (see Materials and Methods). The means of at least three separate experiments are shown (s.d.≦20% of the mean value). The production of P18 and P24 by human CD38 cyclase, with inhibitory effects on colony growth, together with cADPR, with stimulatory effect, may be at least partly responsible for the colony growth inhibition observed during long term culture of human HP cells on CD38^+ stroma. […]
On the technique in general: Tetrazolium dyes change colour on reduction, which living cells bring about.

The subject of a further data set is CD38^− HeLa cells. The experiment in a line: Intracellular calcium assay (FURA 2-AM), CD38- HeLa. In kind it is cell-based, human. Particulars: 10 μM for 18 hours; for tapsigargine-induced release of calcium from ER stores [Ca^2+]i: 1 μM tapsigargine. Here is the method:
Adherent CD38^+ and CD38^− human HeLa cells on 20 mm-diameter coverslips were incubated in complete medium in the presence of […] P18 or P24 for […]. The cells were then washed, incubated with 6 μM Fura 2-acetoxymethyl ester (FURA 2-AM) in standard saline (135 mM NaCl, 5.4 mM KCl, 1.8 mM CaCl2, 1 mM MgCl2, 5 mM Hepes, 10 mM glucose, pH 7.4) for 45 minutes at 37° C. and then washed several times with saline. Calcium measurements were performed in a 200-μl chamber mounted on an inverted microscope, as described in detail in Zocchi E., et al. (1998) J. Biol. Chem. 273, 8017-8024. After determination of basal [Ca^2+]i levels, 1 μM tapsigargine was added to induce the release of calcium from tapsigargine-sensitive stores ([…]). The parameter values needed for calibration were obtained at the end of the experimental measurements, as described in Zocchi E., et al. (1998) J. Biol. Chem. 273, 8017-8024.
Basal cytosolic calcium and tapsigargine-induced release of calcium from […] (ER) stores (in bold in Table 4) were measured in CD38^+ and CD38^− HeLa cells loaded with FURA 2-AM and incubated in the absence (control) or in the presence of P18 or P24 at a concentration of 10 μM for 18 hours. The results obtained, expressed as [Ca^2+]I nanomolarity, are summarised in Table 4, showing mean results from 8 separate experiments (s.d.≦15% of the mean value).
(In general: Calcium assays in cells follow changes in intracellular calcium, usually with a dye or a luminescent sensor.)

In the next data set the test system is HL60. Description: MTT reduction proliferation assay, HL60. The format is cell-based, human. The settings on record: HL60 promyelocytic leukemia, 24 hours. The protocol:
(§1) The effect of P18 and P24 on the proliferation of several cell lines was determined by the MTT reduction assay (Mosmann, T. (1983) J. Immunol. Methods 65, 55-63). Briefly, cells were seeded at a concentration of 3×10^4/well in flat-bottomed 96-well plates and grown in complete medium in the presence of various concentrations (ranging between 20 and 0.4 μM) of purified dinucleotides. After 24 hours, 10 μl of a 5 mg/ml solution of MTT were added to each well and the plates incubated for a further 2 hours. The supernatant was then removed from each well and the blue crystals produced by the reduction of the dye were dissolved in DMSO (200 μl/well). The optical absorbance at 570 nm was determined with a BioRad microplate reader.
(§2) In these experiments, cells were seeded onto 96 well plates (3×10^4 cells per well) and incubated in the presence of increasing concentrations of P18 or P24. After 24 hours, the percentage of viable cells was evaluated by spectrophotometric measurement of the concentration of reduced MTT (see Materials and Methods). The means of at least three separate experiments are shown (s.d.≦20% of the mean value). […]

The test system of a further data set is K562. The experiment in a line: MTT reduction proliferation assay, K562. The settings on record: K562 proerythroblastic leukemia, 24 hours. The format is cell-based, human. The protocol: as §1, §2

With `Nc1ncn([C@@H]2O[C@H](COP(=O)(O)OP(=O)(O)OC[C@H]3O[C@@H](n4cnc5c(N)ncnc54)[C@H](O)[C@@H]3O)[C@@H](O)[C@H]2O)c2ncnc1-2` [P24], in the data set on Recombinant CD38, the hydrolysis activity is 0.25^1 nmol/min/mg. For the same molecule, in “Acid hydrolysis”, the “sensitivity to acid hydrolysis” value is “sensitive to acid hydrolysis”. Further, 9.1 µM corresponded to half-maximal inhibition with CD38^+ HeLa (IC50). In the data set on CD38^− HeLa cells, the “ER stores-calcium, % of the control” value is listed as 60%; the “basal [Ca^2+]i, % of the control” value was 191%; the “basal cytosolic free calcium [Ca^2+]i” value is 44 nM; the “tapsigargine-induced release of calcium from ER stores [Ca^2+]i” value was found to be 290 nM. The IC50 in the data set on HL60 was 2 µM. Moreover, the IC50 with K562 is 5.8 µM.

In the case of `Nc1ncnc2c1ncn2[C@@H]1O[C@H](COP(=O)(O)OP(=O)(O)OC[C@H]2O[C@@H](n3cnc4ncnc-4c3N)[C@H](O)[C@@H]2O)[C@@H](O)[C@H]1O` [P18], the “resistance to CD38 catalysed hydrolysis” value with Recombinant CD38 (recombinant CD38) is listed as “resistance”. Moreover, the hydrolysis activity in the data set with Recombinant CD38 (recombinant CD38, P18 and P24 to adenine and ADPR) was 6.0^1 nmol/min/mg. Further, in “Acid hydrolysis”, the “sensitivity to acid hydrolysis” value was “sensitive to acid hydrolysis”. This molecule had an IC50 with CD38^+ HeLa of 120 µM. Further, in the data set with CD38^− HeLa cells, the “ER stores-calcium, % of the control” value was 78%; the “basal [Ca^2+]i, % of the control” value is listed as 52%; the “basal cytosolic free calcium [Ca^2+]i” value is listed as 12 nM; the “tapsigargine-induced release of calcium from ER stores [Ca^2+]i” value was 366 nM. The molecule also gave an IC50 in the data set with HL60 of 26 µM. In the data set on K562, this molecule yielded an IC50 of 44 µM.
